According to patent US6413944B1 (Regents of the University of Michigan, priority 1991, dated 2002):
Read-outs that look alike come from different tables or passages of the source.

What was measured:
[1] = molecular target: RT (Human immunodeficiency virus type 1 group M subtype B, UniProt P04585); test: RT inhibition assays; format: biochemical; details: in words
[2] = system: HIV-1; test: microbe, parasite or virus in culture; details: for IC50: Human immunodeficiency virus 1, CEM-SS
Method: CEM-SS cells were seeded at 10,000 cells per well into 96-cell plates precoated with poly L-lysine. The cell monolayers were infected with about 50 plaque forming units of HIV-1. After 1 hr for virus attachment, the cell monolayers were overlaid with growth medium with or without added test compound. After 3 days incubation at 37° C. in a CO2 incubator, the cell monolayers received a second overlay of growth medium with or without added test compound and incubation at 37° C. continued for a total of 5 days. HIV-1 plaques were counted, the counts entered into a computer and a IC50 for HIV-1 plaque formation was determined. Each experiment was replicated at least once.
Dose-response relationships were used to compare drug effects. These were constructed by linearly regressing the percent inhibition of parameters derived in the preceding sections against log drug concentrations. The 50% inhibitory (I50) concentrations were calculated from the regression lines.

[3] = system: HCMV; test: HCMV plaque (focus) reduction assay in HFF cells; format: cell-based, human cytomegalovirus; details: in words
[4] = Cytotoxicity by uptake of [3H]thymidine in uninfected CEM-SS cells; format: cell-based; details: human; uptake of [3H]thymidine in uninfected CEM-SS cells (Table I); read-out: 50% Inhibitory Concentration, Cytotoxicity
Method: CEM-SS cells were seeded in 96 well plates (10,000 cells per well) in growth medium containing various concentrations of test compound and incubated at 37° C. in a CO2 incubator. After 36 hours incubation the cells were pulse-labeled for 4 hours at 37° C. with 1 μCi ^3H-TdR uptake into cellular DNA. Controls consisted of CEM-SS cells not treated with drug and pulse-labeled for 4 hours with [^3H]thymidine (positive control) or harvested immediately after addition of [^3H]thymidine (negative control). The harvested samples were counted by scintillation spectrometry to obtain a mean±one S.D. for each set of triplicate wells. The data were entered into a computer and used to determine a IC50 for cell cytotoxicity. Each experiment was replicated at least once.

[5] = system: HIV; format: cell-based; details: persistently infected monocyte/macrophages and T-cells; reverse transcriptase, p24 core antigen, infectious virus; in words

CN1N=C(N)c2cn(C3OC(COP(=O)(O)OP(=O)(O)OP(=O)(O)O)C(O)C3O)c3ncnc1c23 (stereo not drawn) [TCN-triphosphate]
inhibition of RT enzyme [1]: do not act via inhibition of this enzyme

Cc1cn([C@H]2C[C@H](N=[N+]=[N-])[C@@H](CO)O2)c(=O)[nH]c1=O [AZT, zidovudine]
IC50 ([2]; read-out: 50% Inhibitory Concentration, Antiviral Activity: HIV, syncytial assay in CEM-SS cells (Table I)): 2.7 nM | IC50 ([2]; read-out: Syncytial Assay 50% Inhibitory Concentration, HIV-1G-691 (post AZT therapy), clinical isolate resistant to AZT): 210 nM | IC50 ([2]; read-out: Syncytial Assay 50% Inhibitory Concentration, HIV-1G-762 (pre AZT therapy), clinical isolate sensitive to AZT): 0.2 nM | IC50 ([2]; read-out: Syncytial Assay 50% Inhibitory Concentration, HIV-1G-910 (post AZT therapy)): 7200 nM | IC50 ([2]; read-out: Syncytial Assay 50% Inhibitory Concentration, HIV-1H-1112 (pre AZT therapy)): < 1 nM | IC50 ([2]; read-out: Syncytial Assay 50% Inhibitory Concentration, HIV-1IIIB (Table III)): 2 nM | Differential Selectivity (HIV) ([2]; cytotoxicity in CEM-SS cells versus HIV syncytial assay): 1852 | activity against HCMV [3]: inactive | IC50 at 36 h [4]: 5000 nM | activity in reducing HIV production in persistently infected cells [5]: not active

Nc1ccn([C@H]2CC[C@@H](CO)O2)c(=O)n1 [ddC, dideoxycytidine]
activity in reducing HIV production in persistently infected cells [5]: not active
